Tests used:
NHE7 [1] = biological target: T1, NHE7 (Homo sapiens, UniProt Q96T83); test: Lithium uptake in PM-NHE7 cells (atomic absorption spectroscopy), dose-response of inhibitors; format: cell-based; settings: for Ki: calculated from dose-response curves of lithium uptake, 3 to 10 mM LiCl, initial velocity conditions; for affinity to NHE7 / selectivity of affinity NHE7 compare to NHE1: statement in words; for affinity to NHE7: from dose-response curves (figure 1) and table 1; for selectivity of affinity NHE7 compare to NHE1: from table 1
T1 construct: expressed in transfected cells
T1 sequence (Q96T83 1-725): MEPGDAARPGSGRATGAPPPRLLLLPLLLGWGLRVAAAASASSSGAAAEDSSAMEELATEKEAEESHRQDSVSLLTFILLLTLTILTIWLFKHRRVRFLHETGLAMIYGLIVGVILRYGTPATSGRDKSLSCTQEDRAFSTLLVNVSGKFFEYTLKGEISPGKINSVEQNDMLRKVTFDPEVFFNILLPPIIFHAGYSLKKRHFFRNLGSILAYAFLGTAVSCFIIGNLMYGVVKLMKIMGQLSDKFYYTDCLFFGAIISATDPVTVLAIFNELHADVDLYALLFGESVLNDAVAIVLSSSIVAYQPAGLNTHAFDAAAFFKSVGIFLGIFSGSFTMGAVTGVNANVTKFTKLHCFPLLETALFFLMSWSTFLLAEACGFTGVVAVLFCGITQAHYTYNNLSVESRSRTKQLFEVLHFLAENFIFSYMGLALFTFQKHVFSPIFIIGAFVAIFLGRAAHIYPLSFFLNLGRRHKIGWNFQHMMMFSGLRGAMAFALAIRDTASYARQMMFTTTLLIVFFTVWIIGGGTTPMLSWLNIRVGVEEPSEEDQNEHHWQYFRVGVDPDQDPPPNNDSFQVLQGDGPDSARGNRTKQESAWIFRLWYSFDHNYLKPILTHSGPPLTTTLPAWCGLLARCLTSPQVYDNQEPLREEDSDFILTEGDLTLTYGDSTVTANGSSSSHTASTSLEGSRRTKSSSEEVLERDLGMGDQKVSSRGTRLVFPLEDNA
Procedure: The PM-NHE7 cells selected for NHE7 expression at the plasma membrane (Milosavljevic N, Monet M, Léna I, Brau F, Lacas-Gervais S, Feliciangeli S, Counillon L, Poet M., The intracellular Na(+)/H(+) exchanger NHE7 effects a Na(+)-coupled, but not K(+)-coupled proton-loading mechanism in endocytosis. Cell rep. 7, 1-8, May 8, 2014, 689-696) were seeded to confluence on 24-well plates and incubated for 60 minutes at 37°C in a medium containing 50 mM NH4Cl , 70mM Choline Chloride, 2 mM CaCl2, 1 mM MgCl2, 5 mM glucose, 15 mM Hepes (pH 7.4). The cells were then rinsed twice in less than 15 seconds with 120 mM choline chloride buffered to pH 7.4 with 15 mM Tris, 1 mM MgCl2, 2 mM CaCl2. The uptake of lithium was then started by adding the same medium containing 3 to 10 mM LiCl and the various inhibitor concentrations. Under these conditions, Lithium uptake is linear. All dose-response curves for the inhibitors tested in this study were therefore measured under initial velocity conditions in which equation (1) applies. At the end of the uptake time the cells were rinsed rapidly (4 rinses in less than 10 seconds) in PBS at 4° C. 250µl of 25% nitric acid were added per well. The cell contents were then transferred into eppendorf tubes. The tubes were centrifuged for 5 min at 13000 rpm at room temperature. The supernatant is used to measure the activity of NHE7 (or NHE1 in control) by measuring intracellular the Li^+ concentrations (which are due to NHE7 transport) by atomic absorption spectroscopy. (Thermo ICE 3000 Series AA Spectrometer). Data obtained from the uptake measurements were used to plot the dose responses curves i.e. the % of maximal lithium uptake as a function of the inhibitors concentrations (Log scale, figure 1).
Because acylguanidines are competitive inhibitors of NHE7, the dose response curves of different concentrations of inhibitors on the rate of transport are given by equation (1) below: V = Vmax[Li^(*)]/(Kmapp+[Li^+]); With Kmapp = Km(1 + [I]/Ki] [formula] • where [I] is the inhibitor concentration, • Vmax is the maximum speed of the exchanger, expressed in (100)% in the dose response curves, • Km is the value of the Michaelis constant for Lithium (see Milosavljevic et al., Cell rep. 7, 1-8, May 8, 2014, 689-696 for NHE7) • Ki the dissociation constant for the inhibitor under consideration.
It is simple to obtain a linear equation by plotting the Maximal rate (w/o inhibitor) versus the rates in the presence of inhibitor, as a function of the inhibitor concentration. The slope is then proportional to 1/Ki. Table 1: Ki of the tested inhibitors

NHE1 = NHE1 (Homo sapiens, UniProt P19634); test: Lithium uptake measurement, NHE1 control; format: cell-based; settings: for Ki: calculated from dose-response curves of lithium uptake; for Km: Michaelis constant of the cation for the exchanger
Chain of NHE1 (P19634 whole entry, species assumed): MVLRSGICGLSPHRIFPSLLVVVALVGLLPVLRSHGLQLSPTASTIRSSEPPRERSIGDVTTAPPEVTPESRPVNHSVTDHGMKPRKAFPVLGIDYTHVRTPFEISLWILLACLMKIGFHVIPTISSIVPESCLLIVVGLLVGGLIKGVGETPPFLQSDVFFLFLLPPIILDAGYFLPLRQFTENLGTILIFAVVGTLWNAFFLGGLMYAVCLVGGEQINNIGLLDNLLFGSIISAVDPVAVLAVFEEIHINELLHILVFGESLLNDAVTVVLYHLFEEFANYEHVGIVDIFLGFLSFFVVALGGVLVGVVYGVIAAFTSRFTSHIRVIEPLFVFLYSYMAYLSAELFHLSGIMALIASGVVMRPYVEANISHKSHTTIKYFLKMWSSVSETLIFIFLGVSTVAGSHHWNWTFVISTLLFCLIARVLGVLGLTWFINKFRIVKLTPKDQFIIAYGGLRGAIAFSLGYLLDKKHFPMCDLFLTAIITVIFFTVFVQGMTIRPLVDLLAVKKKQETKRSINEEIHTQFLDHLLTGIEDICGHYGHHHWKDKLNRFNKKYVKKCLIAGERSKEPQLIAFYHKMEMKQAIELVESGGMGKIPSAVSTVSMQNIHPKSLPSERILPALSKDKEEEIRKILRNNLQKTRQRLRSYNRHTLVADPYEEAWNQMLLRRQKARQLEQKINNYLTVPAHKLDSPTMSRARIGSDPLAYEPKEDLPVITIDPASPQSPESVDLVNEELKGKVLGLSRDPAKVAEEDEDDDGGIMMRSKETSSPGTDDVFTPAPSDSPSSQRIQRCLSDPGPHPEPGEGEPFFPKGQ
Procedure: The uptake of lithium was then started by adding the same medium containing 3 to 10 mM LiCl and the various inhibitor concentrations. […] At the end of the uptake time the cells were rinsed rapidly (4 rinses in less than 10 seconds) in PBS at 4° C. 250µl of 25% nitric acid were added per well. The cell contents were then transferred into eppendorf tubes. The tubes were centrifuged for 5 min at 13000 rpm at room temperature. The supernatant is used to measure the activity of NHE7 (or NHE1 in control) by measuring intracellular the Li^+ concentrations (which are due to NHE7 transport) by atomic absorption spectroscopy. (Thermo ICE 3000 Series AA Spectrometer). Data obtained from the uptake measurements were used to plot the dose responses curves i.e. the % of maximal lithium uptake as a function of the inhibitors concentrations (Log scale, figure 1).
It is simple to obtain a linear equation by plotting the Maximal rate (w/o inhibitor) versus the rates in the presence of inhibitor, as a function of the inhibitor concentration. […] Table 1: Ki of the tested inhibitors

NHE7 [2] = biological target: T1, NHE7; settings: Michaelis constant of the cation for the exchanger; cited from earlier work
[3] = tested on: WT NHE7 transfected cells; test: Endocytosis kinetics: Alexa 555 transferrin uptake in cells expressing NHE7 in intracellular compartments; format: cell-based; settings: different concentrations of zoniporide, five minutes of incubation, figure 2
Procedure: […] Alexa 555 transferrin (Invitrogen) was bound for various times at 37°C on WT NHE7 transfected cells (that express NHE7 specifically in intracellular compartments) in control conditions or in the presence of zoniporide at the defined concentrations. After five minutes of incubation, the coverslips were rapidly rinsed in ice-cold PBS and the cells were fixed in ice-cold 4% PFA and then permeabilized with 2% saponin. The nuclei were then stained with DAPI. These different steps rinse the transferrin, which has not been internalized, and stop intracellular traffic. This makes it possible to visualize the endocytosis at different times. The coverslips were then mounted and photographed for image analysis and quantification. […] Endocytosis was quantified as the normalized fluorescence accumulation in intracellular clusters as a function of time using a home-made macro (Mica Imaging platform, Nice) on Image J NIH ImageJ (Schneider, C. A.; Rasband, W. S. & Eliceiri, K. W. (2012), "NIH Image to ImageJ: 25 years of image analysis", Nature methods 9(7): 671-675). […] Then, all the clusters of red pixels (Alexa transferrin 555) with a density, a shape and a surface defined by the macro (and parameterizable by the user) are quantified inside each mask. […]

Compound	Ki (NHE7 [1])	Ki (NHE1)	also measured
CCN(c1nc(N)c(C(=O)NC(=N)N)nc1Cl)C(C)C [EIPA, 5N-(ethylisopropyl) amiloride]	0.04 µM	0.1 µM	–
Cc1cc(-n2cccc2)c(S(C)(=O)=O)cc1C(=O)NC(=N)N [Eniporide, eniporide]	0.0025 µM	0.04 µM	affinity to NHE7 (NHE7 [1]): very good affinity; selectivity of affinity NHE7 compare to NHE1 (NHE7 [1]): selective to NHE7 compare to NHE1
[Li+] [Li^+, lithium]	–	–	Km (NHE1): 10 mM; Km (NHE7 [2]): 16 mM
[Na+] [Na^+, sodium]	–	–	Km (NHE1): 30 mM
N=C(N)NC(=O)c1cnn(-c2cccc3ncccc23)c1C1CC1 [Zoniporide, zoniporide]	0.003 µM	0.02 µM	affinity to NHE7 (NHE7 [1]): very good affinity; selectivity of affinity NHE7 compare to NHE1 (NHE7 [1]): selective to NHE7 compare to NHE1; % of endocytosis [3]: dose-dependent effect

Now from value to compound, other results behind:

Ki (NHE7 [1])	Ki (NHE1)	Compound	also measured
1.64 µM	–	N=C(N)NC(=O)c1nc(Cl)c(N)nc1N [Amiloride, amiloride]	–
0.02 µM	0.04 µM	CC(C)c1ccc(C(=O)NC(=N)N)cc1S(C)(=O)=O [Cariporide, cariporide]	–
0.17 µM	0.1 µM	CN(C)c1nc(N)c(C(=O)NC(=N)N)nc1Cl [DMA, dimethyl-amiloride]	–
0.08 µM	0.02 µM	N=C(N)NC(=O)c1nc(Cl)c(N2CCCCCC2)nc1N [HMA, hexamethyl-amiloride]	–

Reference: patent publication EP3403653A1, “COMPOUNDS FOR USE IN TREATING BIPOLAR AND RELATED DISORDERS” (Centre National de la Recherche Scientifique (CNRS), priority 2017, dated 2018)
